Reference: the supplement of paper PMC10307832

Assays:
Assay in all cases: relative viability (nuclei count vs DMSO), 5 days (fraction); higher = more cells survive
NCI-H1648 = tested on: NCI-H1648
Outline: (§1)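 Nuclei were stained with Hoechst during a one-step fixation (final 0.05% Triton X-100, 1% formaldehyde, 1 ug/ml Hoechst) carried out 5 days after dosing, then counted on 4× images. The cells, lung cancer lines in 1536-well plates, had been dosed by pin tool the day after seeding with one drug alone or a fixed anchor-drug dose plus five library-drug doses (not always all listed) in √10 steps. Relative viability is the nuclei count in treated wells divided by that in vehicle wells, and each value is the median of duplicate plates.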

NCI-H1623 = tested on: NCI-H1623
Outline: as §1

NCI-H522 = tested on: NCI-H522
Outline: as §1

NCI-H1651 = tested on: NCI-H1651
Outline: as §1

NCI-H520 = tested on: NCI-H520
Outline: as §1

RERF-LC-KJ = tested on: RERF-LC-KJ
Outline: as §1

Compound: NC(=O)Nc1cc(-c2cccc(F)c2)sc1C(=O)N[C@H]1CCCNC1 [AZD7762] + Cc1cc(Nc2cc(N3CCN(C)CC3)nc(Sc3ccc(NC(=O)C4CC4)cc3)n2)n[nH]1 [Tozasertib] (partner 0.1 µM)
- relative viability (NCI-H1648; first compound 0.01 µM): 0.527
- relative viability (NCI-H1648; first compound 0.03162 µM): 0.552
- relative viability (NCI-H1648; first compound 0.1 µM): 0.36
- relative viability (NCI-H1648; first compound 0.3162 µM): 0.451
- relative viability (NCI-H1648; first compound 1 µM): 0.425
- relative viability (NCI-H1623; first compound 0.01 µM): 0.4
- relative viability (NCI-H1623; first compound 0.03162 µM): 0.43
- relative viability (NCI-H1623; first compound 0.1 µM): 0.44
- relative viability (NCI-H1623; first compound 0.3162 µM): 0.441
- relative viability (NCI-H1623; first compound 1 µM): 0.39
- relative viability (NCI-H522; first compound 0.01 µM): 0.536
- relative viability (NCI-H522; first compound 0.03162 µM): 0.657
- relative viability (NCI-H522; first compound 0.1 µM): 0.621
- relative viability (NCI-H522; first compound 0.3162 µM): 0.566
- relative viability (NCI-H522; first compound 1 µM): 0.535
- relative viability (NCI-H1651; first compound 0.01 µM): 0.788
- relative viability (NCI-H1651; first compound 0.03162 µM): 0.769
- relative viability (NCI-H1651; first compound 0.1 µM): 0.74
- relative viability (NCI-H1651; first compound 0.3162 µM): 0.395
- relative viability (NCI-H1651; first compound 1 µM): 0.191
- relative viability (NCI-H520; first compound 0.01 µM): 0.493
- relative viability (NCI-H520; first compound 0.03162 µM): 0.36
- relative viability (NCI-H520; first compound 0.1 µM): 0.425
- relative viability (NCI-H520; first compound 0.3162 µM): 0.39
- relative viability (NCI-H520; first compound 1 µM): 0.275
- relative viability (RERF-LC-KJ; first compound 0.01 µM): 0.637
- relative viability (RERF-LC-KJ; first compound 0.03162 µM): 0.509
- relative viability (RERF-LC-KJ; first compound 0.1 µM): 0.422
- relative viability (RERF-LC-KJ; first compound 0.3162 µM): 0.453
- relative viability (RERF-LC-KJ; first compound 1 µM): 0.249

Compound: C=C1C(=O)O[C@@H](CCCCCCCC)[C@@H]1C(=O)O [C-75] + COc1cccc2cc(-c3nc([C@H]4CC[C@H](C(=O)O)CC4)n4ncnc(N)c34)[nH]c12 [OSI-027] (partner 0.5 µM)
- relative viability (NCI-H1648; first compound 0.08 µM): 0.238
- relative viability (NCI-H1648; first compound 0.253 µM): 0.301
- relative viability (NCI-H1648; first compound 0.8 µM): 0.276
- relative viability (NCI-H1648; first compound 8 µM): 0.267
- relative viability (NCI-H1623; first compound 0.08 µM): 0.463
- relative viability (NCI-H1623; first compound 0.253 µM): 0.503
- relative viability (NCI-H1623; first compound 0.8 µM): 0.416
- relative viability (NCI-H1623; first compound 2.53 µM): 0.38
- relative viability (NCI-H1623; first compound 8 µM): 0.457
- relative viability (NCI-H522; first compound 0.08 µM): 0.744
- relative viability (NCI-H522; first compound 0.253 µM): 0.819
- relative viability (NCI-H522; first compound 0.8 µM): 0.753
- relative viability (NCI-H522; first compound 8 µM): 0.641
- relative viability (NCI-H1651; first compound 0.08 µM): 0.712
- relative viability (NCI-H1651; first compound 0.253 µM): 0.838
- relative viability (NCI-H1651; first compound 0.8 µM): 0.768
- relative viability (NCI-H1651; first compound 2.53 µM): 0.635
- relative viability (NCI-H1651; first compound 8 µM): 0.815
- relative viability (NCI-H520; first compound 0.08 µM): 0.237
- relative viability (NCI-H520; first compound 0.253 µM): 0.338
- relative viability (NCI-H520; first compound 0.8 µM): 0.242
- relative viability (NCI-H520; first compound 2.53 µM): 0.221
- relative viability (NCI-H520; first compound 8 µM): 0.294
- relative viability (RERF-LC-KJ; first compound 0.08 µM): 0.713
- relative viability (RERF-LC-KJ; first compound 0.253 µM): 0.63
- relative viability (RERF-LC-KJ; first compound 0.8 µM): 0.514
- relative viability (RERF-LC-KJ; first compound 2.53 µM): 0.552
- relative viability (RERF-LC-KJ; first compound 8 µM): 0.561

Compound: C=C1C(=O)O[C@@H](CCCCCCCC)[C@@H]1C(=O)O [C-75] + Cc1cc(Nc2cc(N3CCN(C)CC3)nc(Sc3ccc(NC(=O)C4CC4)cc3)n2)n[nH]1 [Tozasertib] (partner 0.1 µM)
- relative viability (NCI-H1648; first compound 0.08 µM): 0.387
- relative viability (NCI-H1648; first compound 0.253 µM): 1.26
- relative viability (NCI-H1648; first compound 0.8 µM): 0.465
- relative viability (NCI-H1648; first compound 8 µM): 0.468
- relative viability (NCI-H1623; first compound 0.08 µM): 0.471
- relative viability (NCI-H1623; first compound 0.253 µM): 0.417
- relative viability (NCI-H1623; first compound 0.8 µM): 0.477
- relative viability (NCI-H1623; first compound 2.53 µM): 0.419
- relative viability (NCI-H1623; first compound 8 µM): 0.461
- relative viability (NCI-H522; first compound 0.08 µM): 0.585
- relative viability (NCI-H522; first compound 0.253 µM): 0.598
- relative viability (NCI-H522; first compound 0.8 µM): 0.489
- relative viability (NCI-H522; first compound 8 µM): 0.497
- relative viability (NCI-H1651; first compound 0.08 µM): 0.694
- relative viability (NCI-H1651; first compound 0.253 µM): 0.995
- relative viability (NCI-H1651; first compound 0.8 µM): 0.706
- relative viability (NCI-H1651; first compound 2.53 µM): 0.688
- relative viability (NCI-H1651; first compound 8 µM): 0.682
- relative viability (NCI-H520; first compound 0.08 µM): 0.428
- relative viability (NCI-H520; first compound 0.253 µM): 0.393
- relative viability (NCI-H520; first compound 0.8 µM): 0.395
- relative viability (NCI-H520; first compound 2.53 µM): 0.295
- relative viability (NCI-H520; first compound 8 µM): 0.46
- relative viability (RERF-LC-KJ; first compound 0.08 µM): 0.561
- relative viability (RERF-LC-KJ; first compound 0.253 µM): 0.568
- relative viability (RERF-LC-KJ; first compound 0.8 µM): 0.557
- relative viability (RERF-LC-KJ; first compound 2.53 µM): 0.493
- relative viability (RERF-LC-KJ; first compound 8 µM): 0.536
